We go through 22 molecules from ChEMBL document CHEMBL3124799, “Discovery of 1,3,4-oxidiazole scaffold compounds as inhibitors of superoxide dismutase expression” (Bioorg Med Chem Lett, 2014).

Activity calls are given as the source filed them. The rule behind the calls is not given here.

Data set [1] concerns Fibroblast. Briefly: Relative expression of human SOD1 expressed in mouse fibroblasts at 10 uM after 48 hrs by ELISA.
Data set [2] relates to Fibroblast. Briefly: Inhibition of human SOD1 expressed in mouse fibroblasts after 48 hrs by ELISA relative to control. The format is functional, cell-based. (In an ELISA, binding on a coated surface is turned into a signal by an enzyme label.)
For data set [3], the system named is Fibroblast. Briefly: Inhibition of human SOD1 expressed in mouse fibroblasts at 10 uM after 48 hrs by ELISA relative to control. Type of data set: functional.
A short description of data set [4]: Drug uptake in serum of mouse expressing SOD1 G93A mutant at 10 mg/kg, ip after 4 hrs. Conditions: read-out: Drug uptake. Type of data set: ADME, organism-based. Set-up: dose 10 mg/kg, route intraperitoneal.
Data set [5] is described as follows: Drug uptake in brain of mouse expressing SOD1 G93A mutant at 10 mg/kg, ip after 2 hrs. The conditions noted are these: read-out: Drug uptake. Set-up: dose 10 mg/kg, route intraperitoneal. The format is ADME, organism-based.
Data set [6] can be described thus: Drug uptake in spinal cord of mouse expressing SOD1 G93A mutant at 10 mg/kg, ip after 2 hrs. Type of data set: ADME, organism-based. Set-up: dose 10 mg/kg, route intraperitoneal. Conditions: read-out: Drug uptake.
A short description of data set [7]: Drug uptake in serum of mouse expressing SOD1 G93A mutant at 10 mg/kg, ip after 2 hrs. Type of data set: ADME, organism-based. Set-up: dose 10 mg/kg, route intraperitoneal. Conditions: read-out: Drug uptake.
Data set [8] can be described thus: Drug uptake in brain of nontransgenic mouse at 10 mg/kg, ip after 4 hrs.
Data set [9] concerns Brain. As to the kind of experiment: Drug uptake in brain of nontransgenic mouse at 10 mg/kg, ip after 24 hrs. Conditions: in vivo.
Data set [10] in a line: Drug uptake in serum of nontransgenic mouse at 10 mg/kg, ip after 24 hrs.
A short description of data set [11]: Drug uptake in spinal cord of nontransgenic mouse at 10 mg/kg, ip after 4 hrs.
Data set [12] can be described thus: Drug uptake in spinal cord of nontransgenic mouse at 10 mg/kg, ip after 24 hrs.
For data set [13], the system named is Mus musculus. As to the kind of experiment: Reduction in SOD1 G93A mutant expression in cerebral cortex of mouse at 20 mg/kg, ip administered every alternate day for 26 days. Type of data set: functional, organism-based. Set-up: dose 20 mg/kg.
Data set [14] concerns Mus musculus. Briefly: Reduction in SOD1 G93A mutant expression in brain stem of mouse at 20 mg/kg, ip administered every alternate day for 26 days. The format is functional, organism-based. Set-up: dose 20 mg/kg.
For data set [15], the system named is Mus musculus. As to the kind of experiment: Reduction in SOD1 G93A mutant expression in cerebellum of mouse at 20 mg/kg, ip administered every alternate day for 26 days. Type of data set: functional, organism-based. Set-up: dose 20 mg/kg.
For data set [16], the system named is Mus musculus. Briefly: Reduction in SOD1 G93A mutant expression in spinal cord of mouse assessed as at 20 mg/kg, ip administered every alternate day for 26 days. The format is functional, organism-based. Set-up: dose 20 mg/kg.
The nature of data set [17]: Drug uptake in serum of mouse expressing SOD1 G93A mutant at 20 mg/kg, ip after 24 hrs. Set-up: dose 20 mg/kg, route intraperitoneal. Type of data set: ADME, organism-based. The conditions noted are these: read-out: Drug uptake.
A short description of data set [18]: Drug uptake in spinal cord of mouse expressing SOD1 G93A mutant at 20 mg/kg, ip after 24 hrs. Conditions: read-out: Drug uptake. Type of data set: ADME, organism-based. Set-up: dose 20 mg/kg, route intraperitoneal.
Data set [19] in a line: Drug uptake in brain of mouse expressing SOD1 G93A mutant at 20 mg/kg, ip after 24 hrs. The format is ADME, organism-based. Set-up: dose 20 mg/kg, route intraperitoneal. Conditions: read-out: Drug uptake.
Data set [20] in a line: Drug uptake in serum of mouse expressing SOD1 G93A mutant at 20 mg/kg, ip after 1 hr. Type of data set: ADME, organism-based. Set-up: dose 20 mg/kg, route intraperitoneal. Conditions: read-out: Drug uptake.
Data set [21] is described as follows: Drug uptake in spinal cord of mouse expressing SOD1 G93A mutant at 20 mg/kg, ip after 1 hr. The format is ADME, organism-based. The conditions noted are these: read-out: Drug uptake. Set-up: dose 20 mg/kg, route intraperitoneal.
Data set [22] in a line: Drug uptake in brain of mouse expressing SOD1 G93A mutant at 20 mg/kg, ip after 1 hr. Set-up: dose 20 mg/kg, route intraperitoneal. The format is ADME, organism-based. The conditions noted are these: read-out: Drug uptake.
The mark [23] stands for this setting: Mus musculus, Fibroblast, 48 h, read-out: IC50.

In data set [1], `Brc1ccc(CSc2nnc(-c3ccncc3)o2)cc1` showed a relative SOD1 expression at 10 µM of 103%.
For the molecule `Ic1ccc(CSc2nnc(-c3ccncc3)o2)cc1`, in data set [1], the relative SOD1 expression at 10 µM turned out to be 69%.
`Fc1ccc(CSc2nnc(-c3ccncc3)o2)cc1`: the relative SOD1 expression at 10 µM in data set [1] worked out at 86%.
`Brc1cccc(CSc2nnc(-c3ccncc3)o2)c1` registered a relative SOD1 expression at 10 µM in [1] of 91%.
With `O=C1NC(=O)C(c2cn(CCCO)c3ncccc23)=C1c1cnccn1`, the IC50 (as a rule, the midpoint of a concentration-inhibition curve) in [2] (setting [23]) turned out to be 10000 nM.
Consider `O=C(CCl)c1cc(Br)c(Br)s1`, for which the IC50 in data set [2] (setting [23]) stood at 650 nM.
`Cc1ccc(CSc2nnc(-c3ccncc3)o2)cc1` returned a relative SOD1 expression at 10 µM in [1] of 126%.
Take `Clc1ccc(CSc2nnc(-c3ccncc3)o2)cc1`: the relative SOD1 expression at 10 µM in [1] is 123%.
In the case of `Clc1cccc(CSc2nnc(-c3ccncc3)o2)c1`, in data set [1], the relative SOD1 expression at 10 µM turned out to be 96%.
The molecule `Brc1ccc(CSc2nnc(-c3cccnc3)o2)cc1` showed a relative SOD1 expression at 10 µM in data set [1] of 68.6%.
As for `Cn1cc(C2=C(c3ccc(Cl)cc3Cl)C(=O)NC2=O)c2ccccc21` [SB-216763], the IC50 in data set [2] (setting [23]) stood at 3000 nM.
In turn, `O=[N+]([O-])c1cccc(CSc2nnc(-c3ccncc3)o2)c1` returned a relative SOD1 expression at 10 µM in [1] of 117%.
In the case of `COc1cccc(CSc2nnc(-c3ccncc3)o2)c1`, in data set [2], the inhibition result is “Dose-dependent effect”. This molecule also registered a relative SOD1 expression at 10 µM in [1] of 50%.
Consider `O=C1Cc2c([nH]c3ccc(Br)cc23)-c2ccccc2N1` [KENPAULLONE], for which, in data set [2] (setting [23]), the IC50 came out at 10000 nM.
In the case of `O=[N+]([O-])c1ccc(CSc2nnc(-c3ccncc3)o2)cc1`, in [1], the relative SOD1 expression at 10 µM is 102%.
`c1cncc(CSc2nnc(-c3ccncc3)o2)c1`: the inhibition entry in data set [3] is “inactive”.
As to `COc1ccc(CSc2nnc(-c3ccncc3)o2)cc1`, the inhibition entry in data set [2] was “Dose-dependent effect”. For the same molecule, the concentration at 4 h was determined as 334 nM in [4], 47 nM in data set [8] and 162 nM in data set [11]. Further, the concentration at 2 h in data set [5] was 29 nM; in data set [6], 57 nM; in data set [7], 153 nM. In data set [9], the Drug uptake entry was “Not Active”. Further, the concentration at 24 h was found to be 123 nM in data set [10] and 113 nM in data set [12]. Moreover, the relative SOD1 expression at 10 µM in data set [1] is 47%.
`CCCCc1c(-c2ccc(O)cc2)[nH]c2nccnc12` [ALOISINE A]: in data set [2] (fibroblast), the IC50 entry is “Not Active”.
For the molecule `Ic1cccc(CSc2nnc(-c3ccncc3)o2)c1`, in data set [2], the inhibition entry is “Dose-dependent effect”. Further, the IC50 in [2] (setting [23]) worked out at 625 nM. Besides, the inhibition entry in data set [13], in data set [14], in [15] and in data set [16] was “Active” throughout. The values for the concentration at 24 h in [17], in data set [18] and in data set [19] were 73 nM, 855 nM and 77 nM, respectively. The concentration at 1 h in data set [20] is 672 nM; in data set [21], 4 µM; in [22], 944 nM.
For the molecule `c1cc(CSc2nnc(-c3ccncc3)o2)ccn1`, in data set [3], the inhibition result is “inactive”.
As for `FC(F)(F)c1ccc(CSc2nnc(-c3ccncc3)o2)cc1`, the relative SOD1 expression at 10 µM in [1] stood at 157%.
Same read-out and setting: in the case of `c1ccc(CSc2nnc(-c3ccncc3)o2)cc1` it was 133%.
